{"source": "PubChem BioAssay AID1259407", "about": "(Chemical Carcinogenesis Research Information System (CCRIS), 2018)", "system": "CCRIS mutagenicity, Ames/micronucleus/aberration tests", "assay": "CCRIS mutagenicity studies", "key": {"[1]": {"conditions": "Test System: AMES SALMONELLA TYPHIMURIUM, Strain/Indicator: TA98, Metabolic Activation: NONE, Method: STANDARD PLATE"}, "[2]": {"conditions": "Test System: AMES SALMONELLA TYPHIMURIUM, Strain/Indicator: TA98, Metabolic Activation: RAT, LIVER, S-9, AROCLOR 1254, Method: STANDARD PLATE"}, "[3]": {"conditions": "Test System: AMES SALMONELLA TYPHIMURIUM, Strain/Indicator: TA100, Metabolic Activation: NONE, Method: STANDARD PLATE"}, "[4]": {"conditions": "Test System: AMES SALMONELLA TYPHIMURIUM, Strain/Indicator: TA100, Metabolic Activation: RAT, LIVER, S-9, AROCLOR 1254, Method: STANDARD PLATE"}, "[5]": {"conditions": "Test System: AMES SALMONELLA TYPHIMURIUM, Strain/Indicator: TA98, Metabolic Activation: NONE, Method: PREINCUBATION"}, "[6]": {"conditions": "Test System: AMES SALMONELLA TYPHIMURIUM, Strain/Indicator: TA100, Metabolic Activation: NONE, Method: PREINCUBATION"}, "[7]": {"conditions": "Test System: AMES SALMONELLA TYPHIMURIUM, Strain/Indicator: TA1535, Metabolic Activation: NONE, Method: PREINCUBATION"}, "[8]": {"conditions": "Test System: AMES SALMONELLA TYPHIMURIUM, Strain/Indicator: TA1537, Metabolic Activation: NONE, Method: PREINCUBATION"}}, "note": "Calls of active or inactive are those of the source. The rule behind the calls is not given here.", "data": [{"compound": "CC(=O)N(O)c1ccccc1C", "values": [{"measurement": "mutagenic call", "setting": "[1]", "result": "inactive; negative"}, {"measurement": "mutagenic call", "setting": "[2]", "result": "active; positive"}, {"measurement": "mutagenic call", "setting": "[3]", "result": "inactive; negative"}, {"measurement": "mutagenic call", "setting": "[4]", "result": "inactive; negative"}]}, {"compound": "CC(=O)c1ccc(Cl)c(Cl)c1Cl", "values": [{"measurement": "mutagenic call", "setting": "Test System: AMES SALMONELLA TYPHIMURIUM, Strain/Indicator: TA98, Metabolic Activation: HAMSTER, LIVER, S-9, AROCLOR 1254, Method: STANDARD PLATE", "result": "active; positive"}, {"measurement": "mutagenic call", "setting": "[1]", "result": "inactive; negative"}, {"measurement": "mutagenic call", "setting": "[2]", "result": "inactive; negative"}, {"measurement": "mutagenic call", "setting": "Test System: AMES SALMONELLA TYPHIMURIUM, Strain/Indicator: TA100, Metabolic Activation: HAMSTER, LIVER, S-9, AROCLOR 1254, Method: STANDARD PLATE", "result": "active; positive"}, {"measurement": "mutagenic call", "setting": "[3]", "result": "inactive; negative"}, {"measurement": "mutagenic call", "setting": "[4]", "result": "active; positive"}, {"measurement": "mutagenic call", "setting": "Test System: MOUSE LYMPHOMA, Strain/Indicator: L5178Y (TK+/TK-), Metabolic Activation: NONE, Method: SUSPENSION/PLATE", "result": "inactive; negative. reevaluation of results: inconclusive"}, {"measurement": "mutagenic call", "setting": "Test System: MOUSE LYMPHOMA, Strain/Indicator: L5178Y (TK+/TK-), Metabolic Activation: RAT, LIVER, S-9, AROCLOR 1254, Method: SUSPENSION/PLATE", "result": "inactive; negative. reevaluation of results: negative"}]}, {"compound": "Cc1ccc(NC(=O)c2ccc(CN3CCN(C)CC3)cc2)cc1Nc1nccc(-c2cccnc2)n1", "values": [{"measurement": "mutagenic call", "setting": "End Point: IN VITRO CHROMOSOMAL ABERRATIONS, Test System: CHINESE HAMSTER EMBRYO (CHE), Metabolic Activation: NONE", "result": "active; positive (structural and numerical changes)"}, {"measurement": "mutagenic call", "setting": "End Point: IN VITRO CHROMOSOMAL ABERRATIONS, Test System: INDIAN MUNTJAK FIBROBLASTS (IMF), Metabolic Activation: NONE", "result": "active; positive (numerical changes)"}, {"measurement": "mutagenic call", "setting": "End Point: IN VITRO CHROMOSOMAL ABERRATIONS, Test System: NORMAL HUMAN DERMAL FIBROBLASTS (NHDF), Metabolic Activation: NONE", "result": "active; positive (structural changes)"}]}, {"compound": "O=C(NCCCl)Nc1ncc([N+](=O)[O-])s1", "values": [{"measurement": "mutagenic call", "setting": "[1]", "result": "active; positive"}, {"measurement": "mutagenic call", "setting": "[3]", "result": "active; positive"}]}, {"compound": "CC(=O)c1cc(N)ccc1OCC(O)CNC(C)(C)C", "note": "(centres undefined)", "values": [{"measurement": "mutagenic call", "setting": "[5]", "result": "inactive; negative"}, {"measurement": "mutagenic call", "setting": "Test System: AMES SALMONELLA TYPHIMURIUM, Strain/Indicator: TA98, Metabolic Activation: RAT, LIVER, S-9, PHENOBARBITAL AND 5,6-BENZOFLAVONE (10 OR 50 µL/PLATE), Method: PREINCUBATION", "result": "inactive; negative"}, {"measurement": "mutagenic call", "setting": "[6]", "result": "inactive; negative"}, {"measurement": "mutagenic call", "setting": "Test System: AMES SALMONELLA TYPHIMURIUM, Strain/Indicator: TA100, Metabolic Activation: RAT, LIVER, S-9, PHENOBARBITAL AND 5,6-BENZOFLAVONE (10 OR 50 µL/PLATE), Method: PREINCUBATION", "result": "inactive; negative"}, {"measurement": "mutagenic call", "setting": "[7]", "result": "inactive; negative"}, {"measurement": "mutagenic call", "setting": "Test System: AMES SALMONELLA TYPHIMURIUM, Strain/Indicator: TA1535, Metabolic Activation: RAT, LIVER, S-9, PHENOBARBITAL AND 5,6-BENZOFLAVONE (10 OR 50 µL/PLATE), Method: PREINCUBATION", "result": "inactive; negative"}, {"measurement": "mutagenic call", "setting": "[8]", "result": "inactive; negative"}, {"measurement": "mutagenic call", "setting": "Test System: AMES SALMONELLA TYPHIMURIUM, Strain/Indicator: TA1537, Metabolic Activation: RAT, LIVER, S-9, PHENOBARBITAL AND 5,6-BENZOFLAVONE (10 OR 50 µL/PLATE), Method: PREINCUBATION", "result": "inactive; negative"}, {"measurement": "mutagenic call", "setting": "Test System: E. COLI, Strain/Indicator: WP2 UVRA, Metabolic Activation: NONE, Method: PREINCUBATION", "result": "inactive; negative"}, {"measurement": "mutagenic call", "setting": "Test System: E. COLI, Strain/Indicator: WP2 UVRA, Metabolic Activation: RAT, LIVER, S-9, PHENOBARBITAL AND 5,6-BENZOFLAVONE, Method: PREINCUBATION", "result": "inactive; negative"}]}, {"compound": "CCCCN", "values": [{"measurement": "mutagenic call", "setting": "Test System: AMES SALMONELLA TYPHIMURIUM, Strain/Indicator: TA98, Metabolic Activation: HAMSTER, LIVER, S-9, AROCLOR 1254 (10%), Method: PREINCUBATION", "result": "inactive; negative"}, {"measurement": "mutagenic call", "setting": "[5]", "result": "inactive; negative"}, {"measurement": "mutagenic call", "setting": "Test System: AMES SALMONELLA TYPHIMURIUM, Strain/Indicator: TA98, Metabolic Activation: RAT, LIVER, S-9, AROCLOR 1254 (10%), Method: PREINCUBATION", "result": "inactive; negative"}, {"measurement": "mutagenic call", "setting": "Test System: AMES SALMONELLA TYPHIMURIUM, Strain/Indicator: TA100, Metabolic Activation: HAMSTER, LIVER, S-9, AROCLOR 1254 (10%), Method: PREINCUBATION", "result": "inactive; negative"}, {"measurement": "mutagenic call", "setting": "[6]", "result": "inactive; negative"}, {"measurement": "mutagenic call", "setting": "Test System: AMES SALMONELLA TYPHIMURIUM, Strain/Indicator: TA100, Metabolic Activation: RAT, LIVER, S-9, AROCLOR 1254 (10%), Method: PREINCUBATION", "result": "inactive; negative"}, {"measurement": "mutagenic call", "setting": "Test System: AMES SALMONELLA TYPHIMURIUM, Strain/Indicator: TA1535, Metabolic Activation: HAMSTER, LIVER, S-9, AROCLOR 1254 (10%), Method: PREINCUBATION", "result": "inactive; negative"}, {"measurement": "mutagenic call", "setting": "[7]", "result": "inactive; negative"}, {"measurement": "mutagenic call", "setting": "Test System: AMES SALMONELLA TYPHIMURIUM, Strain/Indicator: TA1535, Metabolic Activation: RAT, LIVER, S-9, AROCLOR 1254 (10%), Method: PREINCUBATION", "result": "inactive; negative"}, {"measurement": "mutagenic call", "setting": "Test System: AMES SALMONELLA TYPHIMURIUM, Strain/Indicator: TA1537, Metabolic Activation: HAMSTER, LIVER, S-9, AROCLOR 1254 (10%), Method: PREINCUBATION", "result": "inactive; negative"}, {"measurement": "mutagenic call", "setting": "[8]", "result": "inactive; negative"}, {"measurement": "mutagenic call", "setting": "Test System: AMES SALMONELLA TYPHIMURIUM, Strain/Indicator: TA1537, Metabolic Activation: RAT, LIVER, S-9, AROCLOR 1254 (10%), Method: PREINCUBATION", "result": "inactive; negative"}]}, {"compound": "c1ccc(-c2ccc(OCC3CO3)cc2)cc1", "note": "(centres undefined)", "values": [{"measurement": "mutagenic call", "setting": "[3]", "result": "active; positive"}, {"measurement": "mutagenic call", "setting": "Test System: AMES SALMONELLA TYPHIMURIUM, Strain/Indicator: TA1535, Metabolic Activation: NONE, Method: STANDARD PLATE", "result": "active; positive"}]}, {"compound": "Fc1cccc(F)n1", "values": [{"measurement": "mutagenic call", "setting": "Test System: AMES SALMONELLA TYPHIMURIUM, Strain/Indicator: TA97, Metabolic Activation: NONE, Method: STANDARD PLATE", "result": "inactive; negative"}, {"measurement": "mutagenic call", "setting": "Test System: AMES SALMONELLA TYPHIMURIUM, Strain/Indicator: TA97, Metabolic Activation: RAT, LIVER, S-9, AROCLOR 1254, Method: STANDARD PLATE", "result": "inactive; negative"}, {"measurement": "mutagenic call", "setting": "[1]", "result": "inactive; negative"}, {"measurement": "mutagenic call", "setting": "[2]", "result": "inactive; negative"}, {"measurement": "mutagenic call", "setting": "[3]", "result": "inactive; negative"}, {"measurement": "mutagenic call", "setting": "[4]", "result": "inactive; negative"}, {"measurement": "mutagenic call", "setting": "Test System: AMES SALMONELLA TYPHIMURIUM, Strain/Indicator: TA102, Metabolic Activation: NONE, Method: STANDARD PLATE", "result": "inactive; negative"}, {"measurement": "mutagenic call", "setting": "Test System: AMES SALMONELLA TYPHIMURIUM, Strain/Indicator: TA102, Metabolic Activation: RAT, LIVER, S-9, AROCLOR 1254, Method: STANDARD PLATE", "result": "inactive; negative"}]}]}
